Patent US20230114241A1, “METHODS OF TREATING EPILEPSY USING THE SAME” (Trevena, Inc., priority 2019, published 2023)

Assays:
[1] = biological target: T1, human sphingosine-1-phosphate receptor 1 (S1P1) (Homo sapiens, UniProt P21453); assay: Inhibition of cAMP production (HTRF cAMP HiRange), S1P1 CHO-K1 cells; format: cell-based; conditions: for Emax: CHO-K1, efficacy normalized to maximum efficacy of fingolimod, read-out: hS1P1 CAMP SPAN; for EC50: read-out: hS1P1 CAMP pEC50 (converted)
Summary of the method: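 CHO-K1 cells co-expressing human S1P1 (C-terminal ProLink tag) and EA-β-arrestin2, plated overnight; after 30 min compound incubation at 37 °C, intracellular cAMP measured by HTRF TR-FRET following 1 h at room temperature. Values normalized to fingolimod.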
Target sequence in this assay (P21453 whole entry): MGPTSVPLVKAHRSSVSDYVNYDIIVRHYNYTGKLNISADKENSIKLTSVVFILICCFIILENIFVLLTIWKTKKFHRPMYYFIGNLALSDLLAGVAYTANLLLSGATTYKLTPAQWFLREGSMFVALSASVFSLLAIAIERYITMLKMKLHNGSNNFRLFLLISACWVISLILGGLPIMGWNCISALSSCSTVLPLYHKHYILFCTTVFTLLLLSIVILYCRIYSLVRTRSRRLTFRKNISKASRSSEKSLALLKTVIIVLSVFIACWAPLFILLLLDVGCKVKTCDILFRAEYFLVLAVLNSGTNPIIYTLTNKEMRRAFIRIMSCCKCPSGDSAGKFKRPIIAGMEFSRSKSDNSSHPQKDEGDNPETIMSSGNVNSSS

[2] = biological target: T1, human sphingosine-1-phosphate receptor 1 (S1P1); assay: β-Arrestin2 recruitment assay (PathHunter), S1P1 CHO-K1 cells; format: cell-based; conditions: for Emax: efficacy normalized to maximum efficacy of fingolimod, read-out: hS1P1 B-arrestin2 SPAN; for EC50: β-arrestin2 recruitment, read-out: hS1P1 B-arrestin2 pEC50 (converted)
Summary of the method: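 CHO-K1 cells co-expressing EA-β-arrestin2 and ProLink-tagged human S1P1 plated overnight, then stimulated 60 min at 37 °C. Enzyme-fragment complementation (β-galactosidase) detected after 1 h at room temperature by luminescence; values normalized to fingolimod.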
Target sequence in this assay (P21453 whole entry): as above
Target sequence in this assay (P32121 whole entry partner): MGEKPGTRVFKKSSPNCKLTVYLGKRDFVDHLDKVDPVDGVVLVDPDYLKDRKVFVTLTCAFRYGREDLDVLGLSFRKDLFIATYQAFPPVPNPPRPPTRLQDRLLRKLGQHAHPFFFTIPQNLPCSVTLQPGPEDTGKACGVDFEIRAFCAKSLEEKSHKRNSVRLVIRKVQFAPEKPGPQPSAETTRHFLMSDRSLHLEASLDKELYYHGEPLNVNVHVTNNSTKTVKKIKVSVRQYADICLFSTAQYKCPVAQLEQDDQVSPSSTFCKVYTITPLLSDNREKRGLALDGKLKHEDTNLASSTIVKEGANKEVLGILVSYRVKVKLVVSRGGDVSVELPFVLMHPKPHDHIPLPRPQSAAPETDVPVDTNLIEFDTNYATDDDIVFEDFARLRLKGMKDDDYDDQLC

[3] = inhibition of cAMP production, S1P1
[4] = inhibition of cAMP production, potency
[5] = CHO-K1, β-arrestin2 recruitment

`Cc1ccncc1-c1noc(-c2ccc3c(c2)NC(=O)CN3)n1` [Compound 613, 7-[3-(4-methylpyridin-3-yl)-1,2,4-oxadiazol-5-yl]-1,2,3,4-tetra-hydroquinoxalin-2-one] was tested, and the Emax [1] was less than 75%, the EC50 [1, 3] was greater than 0.316 µM and the Emax ([2]; CHO-K1) was less than 75%. The EC50 ([2]; S1P1) was greater than 10 µM.

`CC(C)n1nnc2cc(-c3noc(-c4ccccc4N(C)C)n3)ccc21` [Compound 615, N,N-dimethy1-2-{3-[1-(propan-2-yl)-1H-1,2,3-benzotriazol-5-yl]-1,2,4-oxadiazol-5-yl}aniline] showed an Emax [1] greater than 75%, an EC50 [1, 3] of less than 0.316 µM and an Emax ([2]; CHO-K1) greater than 75%. It also gave an EC50 ([2]; S1P1) of less than 10 µM.

For `Cc1ccccc1-c1nc(-c2ccc3c(c2)nnn3C2CCCC2)no1` [Compound 162, 3-(1-cyclopentyl-1H-benzo[d][1,2,3]triazol-5-yl)-5-(o-tolyl)-1,2,4-oxadiazole], the Emax ([1]; inhibition of cAMP production) was greater than 75%, the EC50 [1, 4] was greater than 0.316 µM and the Emax [2, 5] was greater than 75%. The EC50 ([2]; potency) was less than 10 µM.

`COc1ccccc1-c1nnc(-c2ccc3c(c2)nnn3C(C)C)o1` [Compound 35, 5-[5-(2-methoxyphenyl)-1,3,4-oxadiazol-2-yl]-1-(propan-2-yl)-1H-1,2,3-benzotriazole] gave an Emax ([1]; inhibition of cAMP production) greater than 75%, an EC50 [1, 4] greater than 0.316 µM and an Emax [2, 5] greater than 75%. The EC50 ([2]; potency) was greater than 10 µM.

`Cc1ccncc1-c1nc(-c2ccc3c(c2)nnn3CC(C)(C)CO)no1` [Compound 541, 2,2-dimethyl-3-(5-(5-(4-methylpyridin-3-yl)-1,2,4-oxadiazol-3-yl)-1H-benzo[d] [1,2,3]triazol-1-yl)propan-1-ol] showed an Emax [1] of less than 75%, an EC50 [1, 3] greater than 0.316 µM and an Emax ([2]; CHO-K1) of less than 75%. The EC50 ([2]; S1P1) was greater than 10 µM.

Compound `CCC1(CC)CC(=O)c2cc(-c3ncc(-c4ccccn4)cn3)ccc2O1` [Compound 530, 2,2-diethyl-6-(5-(pyridin-2-yl)pyrimidin-2-yl)chroman-4-one] has an Emax [1] greater than 75%, an EC50 [1, 3] greater than 0.316 µM and an Emax ([2]; CHO-K1) greater than 75%. It also gave an EC50 ([2]; S1P1) greater than 10 µM.

Work on `CCC1(CC)CC(=O)c2cc(-c3nc(-c4ccc(S(=O)(=O)N(C)C)cc4)no3)ccc2O1` [Compound 30, 4-(5-(2,2-diethyl-4-oxochroman-6-yl)-1,2,4-oxadiazol-3-yl)-N,N-dimethylbenzene-sulfonamide] yielded an Emax ([1]; inhibition of cAMP production) of less than 75%, an EC50 [1, 4] greater than 0.316 µM and an Emax [2, 5] of less than 75%. The EC50 ([2]; potency) was greater than 10 µM.

Compound `Cc1ccccc1-c1noc(-c2ccc3c(c2)nnn3C2CC2)n1` [Compound 171, 1-cyclopropyl-5-[3-(2-methylphenyl)-1,2,4-oxadiazol-5-yl]-1H-1,2,3-benzotriazole] has an Emax ([1]; inhibition of cAMP production) greater than 75%, an EC50 [1, 4] of less than 0.316 µM and an Emax [2, 5] greater than 75%. The EC50 ([2]; potency) was less than 10 µM.

`COc1ccccc1-c1noc(-c2cnc3c(c2)nnn3C(C)C)n1` [Compound 383, 3-(2-methoxyphenyl)-5-[3-(propan-2-yl)-3H-[1,2,3]triazolo[4,5-b]pyridin-6-yl]-1,2,4-oxadiazole] showed an Emax [1] greater than 75%, an EC50 [1, 3] of less than 0.316 µM and an Emax ([2]; CHO-K1) greater than 75%. For the same compound, the EC50 ([2]; S1P1) was less than 10 µM.

`CCC1(CC)CC(=O)c2cc(-c3nnc(-c4ccccc4OC)o3)ccc2O1` [Compound 300, 2,2-diethyl-6-(5-(2-methoxyphenyl)-1,3,4-oxadiazol-2-yl)chroman-4-one] showed an Emax ([1]; inhibition of cAMP production) greater than 75%, an EC50 [1, 4] greater than 0.316 µM and an Emax [2, 5] greater than 75%. The EC50 ([2]; potency) was greater than 10 µM.

`CSc1ccccc1-c1nc(-c2ccc3c(c2)nnn3C(C)C)no1` [Compound 276, 3-(1-isopropyl-1H-benzo[d][1,2,3]triazol-5-yl)-5-(2-(methylthio)phenyl)-1,2,4-oxadiazole] was tested, and the Emax ([1]; inhibition of cAMP production) was greater than 75%, the EC50 [1, 4] was less than 0.316 µM and the Emax [2, 5] was greater than 75%. For the same compound, the EC50 ([2]; potency) was less than 10 µM.

`CCCC1CC(=O)c2ccc(-c3nc(-c4cccnc4)no3)cc2O1` (centres unmarked) [Compound 630, 2-propyl-7-[3-(pyridin-3-yl)-1,2,4-oxadiazol-5-yl]-3,4-dihydro-2H-1-benzopyran-4-one] showed an Emax [1] of less than 75%, an EC50 [1, 3] greater than 0.316 µM and an Emax ([2]; CHO-K1) of less than 75%. For the same compound, the EC50 ([2]; S1P1) was greater than 10 µM.

Work on `CCC1(CC)CC(=O)c2cc(-c3nc(-c4ccccc4OC)ns3)ccc2O1` [Compound 257, 2,2-diethyl-6-(3-(2-methoxyphenyl)-1,2,4-thiadiazol-5-yl)chroman-4-one] yielded an Emax ([1]; inhibition of cAMP production) greater than 75%, an EC50 [1, 4] greater than 0.316 µM and an Emax [2, 5] of less than 75%. For the same compound, the EC50 ([2]; potency) was greater than 10 µM.

With `CC(C)Nc1ccc(-c2nnc(-c3ccc4c(c3)ncn4CCO)o2)cc1C#N` [Compound 574, 5-{5-[1-(2-hydroxy-ethyl)-1H-1,3-benzodiazol-5-yl]-1,3,4-oxadiazol-2-yl}-2-[(propan-2-yl)amino]benzonitrile] the Emax [1] was greater than 75%, the EC50 [1, 3] was greater than 0.316 µM and the Emax ([2]; CHO-K1) was greater than 75%. It also gave an EC50 ([2]; S1P1) greater than 10 µM.

`COc1cccc(-c2nc(-c3ccc4c(ccn4C(C)C)c3)no2)c1` [Compound 392, 3-(1-isopropyl-1H-indol-5-yl)-5-(3-methoxyphenyl)-1,2,4-oxadiazole] was tested, and the Emax [1] was less than 75%, the EC50 [1, 3] was greater than 0.316 µM and the Emax ([2]; CHO-K1) was less than 75%. The EC50 ([2]; S1P1) was greater than 10 µM.

`CCC1(CC)CC(=O)c2cc(-c3nsc(-c4ccccc4OC)n3)ccc2O1` [Compound 222, 2,2-diethyl-6-(5-(2-methoxyphenyl)-1,2,4-thiadiazol-3-yl)chroman-4-one] gave an Emax ([1]; inhibition of cAMP production) greater than 75%, an EC50 [1, 4] greater than 0.316 µM and an Emax [2, 5] of less than 75%. The EC50 ([2]; potency) was less than 10 µM.

Compound `CCC1(CC)CC(=O)c2cc(-c3nc(-c4ccnc(C(=O)NC)c4)no3)ccc2O1` [Compound 592, 4-(5-(2,2-diethyl-4-oxochroman-6-yl)-1,2,4-oxadiazol-3-yl)-N-methylpicolinamide] has an Emax [1] of less than 75%, an EC50 [1, 3] greater than 0.316 µM and an Emax ([2]; CHO-K1) greater than 75%. The EC50 ([2]; S1P1) was greater than 10 µM.

In the case of `CCC1(CC)CC(=O)c2cc(-c3nc(-c4ccc5c(c4)CC(=O)N5)no3)ccc2O1` [Compound 416, 5-(5-(2,2-diethyl-4-oxochroman-6-yl)-1,2,4-oxadiazol-3-yl)indolin-2-one], the Emax [1] is reported as greater than 75%, the EC50 [1, 3] is reported as less than 0.316 µM and the Emax ([2]; CHO-K1) is reported as greater than 75%. The EC50 ([2]; S1P1) was less than 10 µM.

In the case of `COc1cccc(-c2nc(-c3ccc4[nH]ccc4c3)ns2)c1` [Compound 364, 5-[5-(3-methoxyphenyl)-1,2,4-thiadiazol-3-yl]-1H-indole], the Emax ([1]; inhibition of cAMP production) is reported as greater than 75%, the EC50 [1, 4] is reported as greater than 0.316 µM and the Emax [2, 5] is reported as less than 75%. The EC50 ([2]; potency) was greater than 10 µM.

In the case of `Cc1nc2cc(-c3nnc(-c4ccc(NCC(F)F)c(C#N)c4)o3)ccc2[nH]1` [Compound 561, 2-[(2,2-difluoro-ethyl)amino]-5-[5-(2-methyl-1H-1,3-benzodiazol-5-yl)-1,3,4-oxadiazol-2-yl]benzonitrile], the Emax [1] is reported as greater than 75%, the EC50 [1, 3] is reported as less than 0.316 µM and the Emax ([2]; CHO-K1) is reported as less than 75%. The EC50 ([2]; S1P1) was less than 10 µM.

With `CC(C)n1nnc2cc(-c3noc(-c4ccc(-c5ccccc5)cc4)n3)ccc21` [Compound 248, 5-([1,1′-biphenyl]-4-yl)-3-(1-isopropyl-1H-benzo[d][1,2,3]triazol-5-yl)-1,2,4-oxadiazole] the Emax ([1]; inhibition of cAMP production) was less than 75%, the EC50 [1, 4] was greater than 0.316 µM and the Emax [2, 5] was less than 75%. For the same compound, the EC50 ([2]; potency) was greater than 10 µM.

`Cc1cc(-c2nc(-c3ccc4c(c3)nnn4C(C)C)no2)cnc1C` [Compound 201, 5-(5,6-dimethyl-pyridin-3-yl)-3-(1-isopropyl-1H-benzo[d][1,2,3]triazol-5-yl)-1,2,4-oxadiazole] gave an Emax ([1]; inhibition of cAMP production) of less than 75%, an EC50 [1, 4] greater than 0.316 µM and an Emax [2, 5] greater than 75%. The EC50 ([2]; potency) was greater than 10 µM.

With `Cc1ccsc1-c1nc(-c2ccc3c(c2)nnn3CC(C)(C)CO)no1` [Compound 524, 2,2-dimethyl-3-(5-(5-(3-methylthiophen-2-yl)-1,2,4-oxadiazol-3-yl)-1H-benzo[d] [1,2,3]triazol-1-yl)propan-1-ol] the Emax [1] was greater than 75%, the EC50 [1, 3] was less than 0.316 µM and the Emax ([2]; CHO-K1) was less than 75%. The EC50 ([2]; S1P1) was less than 10 µM.

`COc1ccccc1-c1nnc(-c2ccc3c(c2)nnn3C(C)C)s1` [Compound 144, 5-[5-(2-methoxyphenyl)-1,3,4-thiadiazol-2-yl]-1-(propan-2-yl)-1H-1,2,3-benzotriazole] was tested, and the Emax ([1]; inhibition of cAMP production) was greater than 75%, the EC50 [1, 4] was greater than 0.316 µM and the Emax [2, 5] was less than 75%. The EC50 ([2]; potency) was less than 10 µM.

For `CC(C)n1nnc2cc(-c3noc(C4CCCC4)n3)ccc21` [Compound 278, 5-(5-cyclopentyl-1,2,4-oxadiazol-3-yl)-1-(propan-2-yl)-1H-1,2,3-benzotriazole5-(5-cyclopentyl-1,2,4-oxadiazol-3-yl)-1-(propan-2-yl)-1H-1,2,3-benzotriazole], the Emax ([1]; inhibition of cAMP production) was less than 75% and the Emax [2, 5] was less than 75%.

In the case of `O=C1CC2(CCC(F)(F)CC2)Oc2ccc(-c3nc(-c4ccncc4)no3)cc21` [Compound 217, 4′,4′-difluoro-6-[3-(pyridin-4-yl)-1,2,4-oxadiazol-5-yl]-3,4-dihydrospiro[1-benzopyran-2,1′-cyclohexane]-4-one], the Emax ([1]; inhibition of cAMP production) is reported as less than 75%, the EC50 [1, 4] is reported as greater than 0.316 µM and the Emax [2, 5] is reported as less than 75%. For the same compound, the EC50 ([2]; potency) was greater than 10 µM.

`CCC1(CC)CC(=O)c2cc(-c3nc(-c4cnccc4C)no3)ccc2O1` [Compound 549, 2,2-diethyl-6-(3-(4-methylpyridin-3-yl)-1,2,4-oxadiazol-5-yl)chroman-4-one] showed an Emax [1] greater than 75%, an EC50 [1, 3] of less than 0.316 µM and an Emax ([2]; CHO-K1) greater than 75%. The EC50 ([2]; S1P1) was less than 10 µM.

For `CC(C)(CO)n1nnc2cc(-c3noc(-c4ccccc4Cl)n3)ccc21` [Compound 618, 2-(5-(5-(2-chloro-phenyl)-1,2,4-oxadiazol-3-yl)-1H-benzo[d][1,2,3]triazol-1-yl)-2-methylpropan-1-ol], the Emax [1] was less than 75%, the EC50 [1, 3] was greater than 0.316 µM and the Emax ([2]; CHO-K1) was less than 75%. The EC50 ([2]; S1P1) was less than 10 µM.
